Data as given in the NIST ThermoML archive (doi:10.1016/j.jct.2015.09.005).
± gives the expanded uncertainty stated by the source.

Settings: Liquid, Gas chromatography

vapor or sublimation pressure (298.15 K) | vapor or sublimation pressure (308.15 K) | vapor or sublimation pressure (318.15 K) | vapor or sublimation pressure (328.15 K) | vapor or sublimation pressure (338.15 K) | vapor or sublimation pressure (348.15 K) | vapor or sublimation pressure (350 K) | SMILES
0.0012 ± 0.0001 kPa | 0.0029 ± 0.0003 kPa | 0.0066 ± 0.0007 kPa | 0.014 ± 0.002 kPa | 0.029 ± 0.003 kPa | 0.056 ± 0.006 kPa | 0.064 ± 0.006 kPa | CC1=COC(=O)[C@@H]2[C@@H]1CC[C@@H]2C
0.00092 ± 9e-05 kPa | 0.0022 ± 0.0002 kPa | 0.005 ± 0.0005 kPa | 0.011 ± 0.001 kPa | 0.022 ± 0.002 kPa | 0.045 ± 0.005 kPa | 0.05 ± 0.005 kPa | CC1=COC(=O)[C@H]2[C@@H]1CC[C@@H]2C
